Each structure is given as a SMILES string. Entries after “also recorded” stand apart in the source; their conditions may differ. Where two headings read alike, the source gives them in different places.

For data set [1], the system named is MAO-A. The data set can be described thus: Post-mortem cerebral MAO-A activity (radioisotopic assay). To be noted: cerebral cortex, rats s.c. 3 mg/kg/daily for five days, means ± SEM. It counts as in vivo, rat. As for the experimental part: (§1) Post-mortem brain analyses included estimation of the amine neurotransmitters concentrations as well as the activities of the degradative enzymes HNMT and MAO-A and MAO-B. The rats were sacrificed 24 h after the last injection. The brains were collected, separated into hypothalamus and the cerebral cortex according to the Glowinski and Iversen method, immediately frozen in liquid nitrogen and kept at −80 °C until assayed. […] For MAO-A serotonin (5-[2-^14C]-hydroxytryptamine binoxalate) and for MAO-B β-[ethyl-1-^14C]-phenylethylamine hydrochloride were used as substrates and respectively, clorgyline (MAO-A) and deprenyl (MAO-B) (final conc. 10^−9 M) as the enzymes inhibitors. Protein was measured by Lowry method.

For data set [2], the system named is HNMT. The data set can be described thus: Post-mortem cerebral HNMT activity (radioisotopic assay). It counts as in vivo, rat. Particulars: for HNMT activity CTX: cerebral cortex; for HNMT activity CTX / HNMT activity HTH: rats s.c. 3 mg/kg/daily for five days, means ± SEM; for HNMT activity HTH: hypothalamus.
Protocol: (§2) Post-mortem brain analyses included estimation of the amine neurotransmitters concentrations as well as the activities of the degradative enzymes HNMT and MAO-A and MAO-B. The rats were sacrificed 24 h after the last injection. The brains were collected, separated into hypothalamus and the cerebral cortex according to the Glowinski and Iversen method [42], immediately frozen in liquid nitrogen and kept at −80 °C until assayed. […] For MAO-A serotonin (5-[2-^14C]-hydroxytryptamine binoxalate) and for MAO-B β-[ethyl-1-^14C]-phenylethylamine hydrochloride were used as substrates and respectively, clorgyline (MAO-A) and deprenyl (MAO-B) (final conc. 10^−9 M) as the enzymes inhibitors.
Data set [3] concerns Lewis rats. The data set can be described thus: Food consumption during subchronic administration to rats (metabolic cages). It counts as in vivo, rat. Particulars: s.c. 3 mg/kg/daily for five days.
Protocol: For the first stage, food intakes were measured daily during subchronic drugs administration. […] All animal experimental procedures were performed in accordance with EU directives and local ethical regulations. Male Lewis rats 9–10 weeks of age were used. Metabolic cages (Tecniplast, Buguggiate, Italy) were used to measure feed consumption. The cages have a standardized size that allows the animal to move inside freely. Throughout the adaptive period and the experimental one, access to feed and fluid was unlimited. The illumination cycle was stable at 12 h light on, 12 h light off. Rats were individually placed in the cages four days before the onset of treatment to adapt to a new environment and conditions of housing. The consumption and excretion were recorded every morning and the monitoring continued as long as the rats stayed in metabolic cages. The treatment ran for five days from the fifth day. […] Records of consumption were taken as g of feed per 100 g body mass.
Data set [4] has as its system MAO-B. The data set can be described thus: Post-mortem cerebral MAO-B activity (radioisotopic assay). Particulars: cerebral cortex, rats s.c. 3 mg/kg/daily for five days, means ± SEM. It counts as in vivo, rat. Here is the method: as §1
Data set [5] deals with histamine concentration in rat brain. The data set can be described thus: Post-mortem cerebral histamine concentration (ELISA). It counts as in vivo. Particulars: rats, s.c. 3 mg/kg/daily for five days. On the technique in general: ELISA stands for enzyme-linked immunosorbent assay.
Protocol: as §2
Data set [6] deals with dopamine, noradrenaline and serotonin concentration in rat brain. The data set is described as follows: Post-mortem cerebral concentration of biogenic amines DA, NA, 5-HT (RIA). Format: in vivo. Particulars: rats.
Protocol: as §2
Data set [7] addresses T1, H1 receptor (Cavia porcellus, UniProt P31389). The arrangement: The excised ileum was placed in phosphate buffer at room temperature; from tissue; host or cells: guinea pig ileum. Particulars: guinea pig ileum, NA = inactive, cited from earlier work.
Data set [8] concerns the target T1, H1 receptor. The data set can be described thus: H1 antagonistic effects in vitro using the guinea pig ileum.
Protocol: The final compounds showing the highest potency for the H3 receptors were also tested for H1 antagonistic effects in vitro, following standard methods, using the guinea pig ileum [34].
Selected final compounds were tested for H1 antagonistic effects in vitro, following standard methods, using the guinea pig ileum [34]. The donors were male guinea pigs (300–400 g) as mentioned above.
The target of data set [9] is H3 receptor (Cavia porcellus, UniProt Q9JI35). The data set can be described thus: H3 antagonistic activity against H3 agonist-induced inhibition of electrically evoked contraction of guinea-pig jejunum. To be noted: vs (R)-α-methylhistamine, Schild analysis; for pA2 (SEM) H3: guinea pig jejunum; for Kb: pA2 (SEM) H3, guinea pig jejunum.
Sequence of H3 receptor (Q9JI35 whole entry): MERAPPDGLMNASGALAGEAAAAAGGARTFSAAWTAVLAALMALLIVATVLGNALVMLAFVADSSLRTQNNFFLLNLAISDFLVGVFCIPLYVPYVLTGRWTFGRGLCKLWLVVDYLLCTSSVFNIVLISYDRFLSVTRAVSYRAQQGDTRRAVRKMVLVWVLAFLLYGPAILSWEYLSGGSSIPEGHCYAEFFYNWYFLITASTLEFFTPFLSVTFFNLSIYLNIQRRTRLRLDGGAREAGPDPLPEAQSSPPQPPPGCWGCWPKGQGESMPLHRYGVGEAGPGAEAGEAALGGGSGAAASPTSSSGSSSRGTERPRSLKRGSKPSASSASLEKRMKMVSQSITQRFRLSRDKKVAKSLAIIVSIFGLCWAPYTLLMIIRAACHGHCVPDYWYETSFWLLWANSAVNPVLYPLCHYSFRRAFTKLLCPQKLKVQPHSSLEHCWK
The target in data set [10] is T2, rat histamine H3 receptor (rH3R) (Rattus norvegicus, UniProt Q9QYN8). The data set is described as follows: biochemical.
T2 sequence (Q9QYN8 whole entry): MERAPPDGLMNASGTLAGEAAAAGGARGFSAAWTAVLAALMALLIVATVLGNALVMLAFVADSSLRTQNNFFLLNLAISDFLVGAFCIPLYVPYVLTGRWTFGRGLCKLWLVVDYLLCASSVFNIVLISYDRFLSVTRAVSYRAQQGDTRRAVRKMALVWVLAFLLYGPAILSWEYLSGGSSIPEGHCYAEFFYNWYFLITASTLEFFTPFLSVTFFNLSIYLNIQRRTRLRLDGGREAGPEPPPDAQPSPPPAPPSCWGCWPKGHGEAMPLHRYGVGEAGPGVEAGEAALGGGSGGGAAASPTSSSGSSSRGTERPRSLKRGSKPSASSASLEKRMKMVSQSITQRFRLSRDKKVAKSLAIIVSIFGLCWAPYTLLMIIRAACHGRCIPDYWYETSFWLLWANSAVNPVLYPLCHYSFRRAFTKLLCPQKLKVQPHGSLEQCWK
In data set [11] the target is human histamine H3 receptor (hH3R) (Homo sapiens, UniProt Q9Y5N1). Particulars: read-out: KD saturation binding at hH3R.
Sequence of human histamine H3 receptor (hH3R) (Q9Y5N1 whole entry): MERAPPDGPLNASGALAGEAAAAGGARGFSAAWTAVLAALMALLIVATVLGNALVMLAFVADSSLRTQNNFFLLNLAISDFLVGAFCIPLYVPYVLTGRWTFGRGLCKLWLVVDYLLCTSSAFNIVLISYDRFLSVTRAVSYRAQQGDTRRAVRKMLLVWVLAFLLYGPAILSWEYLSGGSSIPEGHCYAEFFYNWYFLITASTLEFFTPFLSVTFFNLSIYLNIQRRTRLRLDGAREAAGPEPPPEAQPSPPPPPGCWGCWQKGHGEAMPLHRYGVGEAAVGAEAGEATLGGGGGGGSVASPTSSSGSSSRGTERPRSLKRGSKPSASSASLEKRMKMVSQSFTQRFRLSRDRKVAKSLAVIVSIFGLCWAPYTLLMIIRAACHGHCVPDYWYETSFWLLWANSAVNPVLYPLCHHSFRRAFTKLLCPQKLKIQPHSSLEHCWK
The target of data set [12] is T2, rat histamine H3 receptor (rH3R). Particulars: read-out: KD saturation binding at rH3R; HEK-293T membranes, two hours at 25 °C.

T1 sequence (P31389 whole entry): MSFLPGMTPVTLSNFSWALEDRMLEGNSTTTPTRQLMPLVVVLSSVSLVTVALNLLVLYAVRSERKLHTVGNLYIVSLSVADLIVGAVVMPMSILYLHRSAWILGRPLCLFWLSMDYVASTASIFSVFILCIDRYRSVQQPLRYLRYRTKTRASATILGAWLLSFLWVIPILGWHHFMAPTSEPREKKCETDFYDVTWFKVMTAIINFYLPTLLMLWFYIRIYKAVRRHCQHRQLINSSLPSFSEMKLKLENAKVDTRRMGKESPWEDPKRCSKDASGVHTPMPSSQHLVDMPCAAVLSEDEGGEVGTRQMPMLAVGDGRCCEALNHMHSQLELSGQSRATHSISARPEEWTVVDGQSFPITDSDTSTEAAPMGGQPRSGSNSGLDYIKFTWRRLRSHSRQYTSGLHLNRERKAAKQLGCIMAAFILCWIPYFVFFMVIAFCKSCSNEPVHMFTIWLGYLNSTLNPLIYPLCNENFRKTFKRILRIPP

`O=C(c1ccc(OCCCc2cnc[nH]2)cc1)C1CC1` [Ciproxifan, ciproxifan, reference compound]: the “MAO-A activity CTX” value in data set [1] is recorded as 1654 ± 31.42 pmol/min/mg protein. In addition, in data set [2], the “HNMT activity CTX” value was determined as 46.90 ± 3.59 pmol/min/mg protein and the “HNMT activity HTH” value was 44.68 ± 5.50 pmol/min/mg protein. In data set [3], the “effect on food intake” value is on record as “caused a significant decrease in consumption”. Also, the “MAO-B activity CTX” value in data set [4] is 1049 ± 56.16 pmol/min/mg protein. Besides, in data set [5] (3 mg/kg), the “histamine concentration in the hypothalamus” value is on record as “tended to be higher than in the untreated controls; also recorded: significantly higher than in ADS-531 injected rats”.
`CCCN1CCN(c2ncc(CCN(C)CCCc3ccccc3)s2)CC1` [Compound 2c, N-methyl-N-3-phenylalkyl-2-[2-(4-n-propylpiperazin-1-yl)-1,3-thiazol-5-yl]ethan-1-amine]: the “MAO-A activity CTX” value in data set [1] is 1625 ± 49.99 pmol/min/mg protein. Moreover, the brain penetration entry in data set [6] (s.c. 3 mg/kg, 5 days) is “penetrated the brain”. Further, in [6] (s.c. 3 mg/kg/daily for five days, listed as ADS-531, 3 mg/kg), the “cerebral concentrations of dopamine, noradrenaline and serotonin” value was “affected dopamine, noradrenaline and serotonin concentration; also recorded: caused alterations in the concentrations of dopamine, noradrenaline, and serotonin; also recorded: increase of 5HT and NA level throughout the brain with the exception of the hypothalamus”. In [2], the “HNMT activity CTX” value amounted to 48.19 ± 0.47 pmol/min/mg protein and the “HNMT activity HTH” value is reported as 37.58 ± 2.42 pmol/min/mg protein. Also, the “effect on enzyme activities related to histamine metabolism in the brain (HNMT, MAO-B pathway)” value in [2] (rats, s.c. 3 mg/kg/daily for five days) is given as “No significant changes”. For the same compound, the “effect on food intake” value in data set [3] (listed as ADS-531, 3 mg/kg) was “did not affect histamine concentration nor feeding behavior; also recorded: did not influence the food intake”. Also, the “MAO-B activity CTX” value in [4] was determined as 1044 ± 38.91 pmol/min/mg protein. Also, the cerebral histamine concentration result in data set [5] (listed as ADS-531, 3 mg/kg) is recorded as “did not affect histamine concentration; also recorded: No significant changes”. The “pA2 (SEM) H1” value in data set [7] is “did not possess any activity at H1”. For the same compound, the “pA2 (SEM) H1” value in data set [7] (listed as ADS-531) was “did not exhibit any H1-antagonistic activity; also recorded: devoid of the antagonistic activity at the H1 receptor”.
As for `CCCN1CCN(c2ncc(CCCN(C)Cc3ccccc3)s2)CC1` [Compound 3a, N-Benzyl-N-methyl-3-[2-(4-n-piperazin-1-yl)-1,3-thiazol-5-yl]propan-1-amine], the Kb (commonly the affinity of an antagonist, worked out from how it opposes an agonist) in [8] was 3160 nM. Besides, in [9], the “pA2 (SEM) H3” value is reported as 8.38 and the Kb was 4.17 nM.
In the case of `CCCN1CCN(c2ncc(CCCN(C)CCc3ccccc3)s2)CC1` [Compound 3b, N-Methyl-N-(2-phenylethyl)-3-[2-(4-n-propylpiperazin-1-yl)-1,3-thiazol-5-yl]propan-1-amine], in data set [9], the “pA2 (SEM) H3” value came out at 7.81 and the antagonist equilibrium constant (Kb) was 15.5 nM.
As for `CCCN1CCN(c2ncc(CCCN(C)CCCc3ccccc3)s2)CC1` [Compound 3c, N-Methyl-N-(3-phenylpropyl)-3-[2-(4-n-propylpropylpiperazin-1-yl)-1,3-thiazol-5-yl]-propan-1-amine], in data set [9], the “pA2 (SEM) H3” value was 7.46 and the Kb was 34.7 nM.
Regarding `CCCN1CCN(c2ncc(CCCCN(C)Cc3ccccc3)s2)CC1` [Compound 3d, N-Benzyl-N-methyl-4-[2-(4-n-propylpiperazin-1-yl)-1,3-thiazol-5-yl]butan-1-amine], the Kb is 562 nM in data set [8] and 11.2 nM in [9]. Further, the “pA2 (SEM) H1” value in data set [8] (guinea pig ileum, vs histamine) is on record as 6.25.
As for `CCCN1CCN(c2ncc(CCCCN(C)CCc3ccccc3)s2)CC1` [Compound 3e, N-Methyl-N-(2-phenylethyl)-4-[2-(4-n-propylpiperazin-1-yl)-1,3-thiazol-5-yl]butan-1-amine], the antagonist dissociation constant (Kb) in [9] was 10.7 nM.
Turning to `CCCN1CCN(c2ncc(CCCCN(C)CCCc3ccccc3)s2)CC1` [Compound 3f, N-Methyl-N-(3-phenylpropyl)-4-[2-(4-n-propylpiperazin-1-yl)-1,3-thiazol-5-yl]butan-1-amine], in data set [9], the “pA2 (SEM) H3” value was found to be 7.91 and the antagonist dissociation constant (Kb) is 12.3 nM.
The compound `S=C(NC1CCCCC1)N1CCC(c2cnc[nH]2)CC1` [Thioperamide, thioperamide, reference compound] had a Kb in [9] of 3.39 nM. In [10], affinity was put at a Ki of 12.6 nM.
In the case of `CNCCc1cnc[nH]1` [[^3H]-N^α-MH, [^3H]-N^α-methylhistamine], the Kd turned out to be 0.9 ± 0.08 nM in data set [11] and 2.72 ± 0.34 nM in data set [12].

(Values after paper PMC6017745 (Molecules : A Journal of Synthetic Chemistry and Natural …, 2018).)
